The text below walks through data of the NIST ThermoML archive (doi:10.1021/je0302248).

Molecules are shown by their SMILES. Numbers after ± are expanded uncertainties.

The conditions of the data set: Liquid.

The vapor or sublimation pressure is the pressure of vapour in equilibrium with the condensed phase. As to `CCO` [ethanol], the “vapor or sublimation pressure” value (319.5 K) was determined as 24 ± 7.2 kPa and the “vapor or sublimation pressure” value (336.5 K) turned out to be 53.32 ± 16 kPa.

As for `CCO[Si](OCC)(OCC)OCC` [tetraethoxysilane], the “vapor or sublimation pressure” value (393.4 K) is on record as 24 ± 7.2 kPa and the “vapor or sublimation pressure” value (419.2 K) came out at 53.32 ± 16 kPa.
